The record followed here is patent US9833497B2, “Human originated EGF domain proteins and use of the same” (CHENGDU SOURCEBIO LIMITED-LIABILITY COMPANY, priority 2013, dated 2017).

What is called MIC is the least concentration at which growth counts as inhibited.

What all share (format): cell-based
The subject of test [1] is Pseudomonas aeruginosa. The test can be described thus: MIC against Gram-negative bacteria: Pseudomonas aeruginosa. The conditions noted are these: 5×10^5 CFU/mL. Put shortly: (§1)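 First, colonies from LB agar were grown in LB at 37° C, 185 rpm, to McFarland turbidity 0.5, then centrifuged and resuspended in fresh LB. Next, wells received 5×10^5 CFU/mL bacteria plus two-fold serially diluted EGF domain protein (triplicate). Finally, plates were shaken at 37° C and the no-growth concentration taken as MIC.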

Test [2] deals with Aeromonas hydrophila. The test can be described thus: MIC against Gram-negative bacteria: Aeromonas hydrophila. The conditions noted are these: 5×10^5 CFU/mL. An outline of the steps: as §1
In test [3] the test system is Proteus vulgaris. The test can be described thus: MIC against Gram-negative bacteria: Proteus vulgaris. The conditions noted are these: 5×10^5 CFU/mL. An outline of the steps:
as §1

Test [4] concerns E. coli BL21. The test can be described thus: MIC against Gram-negative bacteria: E. coli BL21. The conditions noted are these: 5×10^5 CFU/mL. Put shortly: as §1
In test [5] the test system is Enterobacter cloacae. The test can be described thus: MIC against Gram-negative bacteria: Enterobacter cloacae. The conditions noted are these: 5×10^5 CFU/mL. An outline of the steps:
as §1

The test system of test [6] is E. coli DH5α. The test can be described thus: Antibacterial activity: MIC and growth curve against E. coli DH5α in 96-well plate. The conditions noted are these: minimal inhibitory concentration against E. coli DH5α; 96-well plate, 5×10^5 CFU/mL, 37° C., judged after 8 h. An outline of the steps:
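MIC taken as lowest protein level with no bacterial growth, tracked by A600 every 30 min during 37 °C, 175 rpm culture. Two-fold protein series 50-12.5 μg/mL final, triplicate wells, against 5×10^5 CFU/mL of LB-washed mid-log cells.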

In test [7] the test system is Citrobacter diversus. The test can be described thus: MIC against Gram-negative bacteria: Citrobacter diversus. As to conditions: 5×10^5 CFU/mL. An outline of the steps: as §1
Test [8] relates to Moraxella catarrhalis. The test can be described thus: MIC against Gram-negative bacteria: Moraxella catarrhalis. The conditions noted are these: 5×10^5 CFU/mL. An outline of the steps: as §1
In test [9] the test system is Serratia marcescens. The test can be described thus: MIC against Gram-negative bacteria: Serratia marcescens. The conditions noted are these: 5×10^5 CFU/mL. Put shortly:
as §1

In test [10] the test system is Klebsiella pneumonia. The test can be described thus: MIC against Gram-negative bacteria: Klebsiella pneumonia. As to conditions: 5×10^5 CFU/mL. An outline of the steps: as §1
Test [11] concerns Proteus mirabilis. The test can be described thus: MIC against Gram-negative bacteria: Proteus mirabilis. As to conditions: 5×10^5 CFU/mL. Put shortly: as §1
The mark [12] stands for this setting: 10 h cultivation at 37° C., two-fold serial dilution.
The mark [13] stands for this setting: P. aeruginosa, 10 h cultivation at 37° C.
Setting [14] is: A. hydrophila, 10 h cultivation at 37° C.
Where [15] appears, read: P. vulgaris, 10 h cultivation at 37° C.
[16] abbreviates: E. coli BL21, 10 h cultivation at 37° C.
The mark [17] stands for this setting: E. cloacae, 10 h cultivation at 37° C.
[18] abbreviates: C. diversus, 10 h cultivation at 37° C.
Where [19] appears, read: M. catarrhalis, 10 h cultivation at 37° C.
[20] abbreviates: S. marcescens, 10 h cultivation at 37° C.
Where [21] appears, read: K. pneumonia, 10 h cultivation at 37° C.
The mark [22] stands for this setting: P. mirabilis, 10 h cultivation at 37° C.
The mark [23] stands for this setting: Pseudomonas aeruginosa, 96-well plate, 37° C., 10 h.
Setting [24] is: Aeromonas hydrophila, 96-well plate, 37° C., 10 h.
The mark [25] stands for this setting: Proteus vulgaris, 96-well plate, 37° C., 10 h.
Where [26] appears, read: E. coli BL21, 96-well plate, 37° C., 10 h.
Setting [27] is: Enterobacter cloacae, 96-well plate, 37° C., 10 h.
Where [28] appears, read: Citrobacter diversus, 96-well plate, 37° C., 10 h.
The mark [29] stands for this setting: Moraxella catarrhalis, 96-well plate, 37° C., 10 h.
The mark [30] stands for this setting: Serratia marcescens, 96-well plate, 37° C., 10 h.
[31] abbreviates: Klebsiella pneumonia, 96-well plate, 37° C., 10 h.
[32] abbreviates: Proteus mirabilis, 96-well plate, 37° C., 10 h.

As for “PRT498 (CDCNPHGSVHGDCDRTSGQCVCRLGASGLRCDECEPRHILMETDCVS; listed as Homo sapiens)”, the “MIC against P. aeruginosa” value in test [1] (96-well plate, 37° C., 10 h) stood at 12.5 µg/mL. For the same substance, the “MIC against A. hydrophila” value in test [2] (96-well plate, 37° C., 10 h) came out at 12.5 µg/mL. Further, in [3] (96-well plate, 37° C., 10 h), the “MIC against P. vulgaris” value worked out at 12.5 µg/mL. Further, the “MIC against E. coli BL21” value in test [4] (96-well plate, 37° C., 10 h) turned out to be 50 µg/mL. Further, the “MIC against E. cloacae” value in test [5] (96-well plate, 37° C., 10 h) worked out at 12.5 µg/mL. This substance had an MIC in test [6] of 12.5 µg/mL. For the same substance, the “MIC against C. diversus” value in test [7] (96-well plate, 37° C., 10 h) is 25 µg/mL. The “MIC against M. catarrhalis” value in test [8] (96-well plate, 37° C., 10 h) was found to be 12.5 µg/mL. Moreover, in test [9] (96-well plate, 37° C., 10 h), the “MIC against S. marcescens” value is 25 µg/mL. The “MIC against K. pneumonia” value in test [10] (96-well plate, 37° C., 10 h) was found to be 12.5 µg/mL. Also, the “MIC against P. mirabilis” value in [11] (96-well plate, 37° C., 10 h) is 25 µg/mL.
Take “PRT1057 (DIDECEMGVPVCPPASSKCINTEGGYVCRCSEGYQGDGIHCL; listed as Homo sapiens)”: the “MIC P. aeruginosa” value in [1] (setting [12]) is 25 µg/mL. In test [2] (setting [12]), the “MIC A. hydrophila” value came out at 50 µg/mL. Besides, the “MIC P. vulgaris” value in [3] (setting [12]) was 50 µg/mL. The “MIC E. coli BL21” value in [4] (setting [12]) is 50 µg/mL. Also, the “MIC E. cloacae” value in test [5] (setting [12]) was 25 µg/mL. For the same substance, the MIC in [6] worked out at 25 µg/mL. The “MIC C. diversus” value in [7] (setting [12]) was 25 µg/mL. For the same substance, in test [8] (setting [12]), the “MIC M. catarrhalis” value was determined as 12.5 µg/mL. Further, in test [9] (setting [12]), the “MIC S. marcescens” value stood at 25 µg/mL. Moreover, the “MIC K. pneumonia” value in [10] (setting [12]) came to 12.5 µg/mL. Also, the “MIC P. mirabilis” value in test [11] (setting [12]) is 25 µg/mL.
For the substance “PRT209 (DVDECAQALHDCRPSQDCHNLPGSYQCTCPDGYR; listed as Homo sapiens)”, the “MIC (μg/mL) P. aeruginosa” value in [1] (setting [13]) was 12.5 µg/mL. Further, the “MIC (μg/mL) A. hydrophila” value in [2] (setting [14]) was found to be 12.5 µg/mL. The “MIC (μg/mL) P. vulgaris” value in test [3] (setting [15]) was found to be 50 µg/mL. In addition, in [4] (setting [16]), the “MIC (μg/mL) E. coli BL21” value was 12.5 µg/mL. Further, the “MIC (μg/mL) E. cloacae” value in test [5] (setting [17]) came to 12.5 µg/mL. The same substance yielded an MIC in test [6] of 12.5 µg/mL. In addition, the “MIC (μg/mL) C. diversus” value in test [7] (setting [18]) stood at 12.5 µg/mL. Also, in [8] (setting [19]), the “MIC (μg/mL) M. catarrhalis” value came out at 12.5 µg/mL. In test [9] (setting [20]), the “MIC (μg/mL) S. marcescens” value was found to be 12.5 µg/mL. Besides, the “MIC (μg/mL) K. pneumonia” value in test [10] (setting [21]) came to 25 µg/mL. In test [11] (setting [22]), the “MIC (μg/mL) P. mirabilis” value amounted to 12.5 µg/mL.
“PRT264 (SGQCLCRSGFAGTACELCAPGAFGPHCQAC; listed as Homo sapiens)”: in [1] (setting [13]), the “MIC (μg/mL) P. aeruginosa” value stood at 12.5 µg/mL. Further, in test [2] (setting [14]), the “MIC (μg/mL) A. hydrophila” value was 25 µg/mL. Also, in test [3] (setting [15]), the “MIC (μg/mL) P. vulgaris” value is 25 µg/mL. Besides, the “MIC (μg/mL) E. coli BL21” value in test [4] (setting [16]) is 50 µg/mL. The “MIC (μg/mL) E. cloacae” value in [5] (setting [17]) worked out at 12.5 µg/mL. This substance also gave an MIC in [6] of 12.5 µg/mL. The “MIC (μg/mL) C. diversus” value in [7] (setting [18]) was determined as 50 µg/mL. Further, the “MIC (μg/mL) M. catarrhalis” value in test [8] (setting [19]) came out at 25 µg/mL. Besides, in [9] (setting [20]), the “MIC (μg/mL) S. marcescens” value was 12.5 µg/mL. Besides, the “MIC (μg/mL) K. pneumonia” value in test [10] (setting [21]) was 50 µg/mL. The “MIC (μg/mL) P. mirabilis” value in [11] (setting [22]) was found to be 12.5 µg/mL.
For “PRT5 (DGDQCETSPCQNQGKCKDGLGEYTCTCLEGFEGKNCE; listed as Homo sapiens)”, the “MIC (μg/mL) P. aeruginosa” value in [1] (setting [23]) turned out to be 25 µg/mL. Moreover, in test [2] (setting [24]), the “MIC (μg/mL) A. hydrophila” value was determined as 12.5 µg/mL. Besides, the “MIC (μg/mL) P. vulgaris” value in test [3] (setting [25]) is 12.5 µg/mL. Moreover, the “MIC (μg/mL) E. coli BL21” value in [4] (setting [26]) is 12.5 µg/mL. For the same substance, in [5] (setting [27]), the “MIC (μg/mL) E. cloacae” value was determined as 25 µg/mL. In [6], the MIC came to 12.5 µg/mL. In addition, the “MIC (μg/mL) C. diversus” value in test [7] (setting [28]) is 25 µg/mL. Also, in test [8] (setting [29]), the “MIC (μg/mL) M. catarrhalis” value worked out at 25 µg/mL. The “MIC (μg/mL) S. marcescens” value in test [9] (setting [30]) was determined as 25 µg/mL. The “MIC (μg/mL) K. pneumonia” value in [10] (setting [31]) is 25 µg/mL. Besides, the “MIC (μg/mL) P. mirabilis” value in test [11] (setting [32]) was found to be 12.5 µg/mL.
As to “PRT1310 (EINSCLIHHGGCHIHAECIPTGPQQVSCSCREGYSGDGIRTCE; listed as Homo sapiens)”, the “MIC against P. aeruginosa” value in test [1] (setting [23]) is 12.5 µg/mL. Moreover, the “MIC against A. hydrophila” value in test [2] (setting [24]) turned out to be 12.5 µg/mL. Moreover, the “MIC against P. vulgaris” value in [3] (setting [25]) amounted to 12.5 µg/mL. Besides, the “MIC against E. coli BL21” value in [4] (setting [26]) stood at 50 µg/mL. The “MIC against E. cloacae” value in test [5] (setting [27]) is 50 µg/mL. In test [6], this substance registered a minimal inhibitory concentration (MIC) of 12.5 µg/mL. For the same substance, the “MIC against C. diversus” value in test [7] (setting [28]) amounted to 25 µg/mL. Also, the “MIC against M. catarrhalis” value in test [8] (setting [29]) came to 50 µg/mL. Also, the “MIC against S. marcescens” value in test [9] (setting [30]) was 25 µg/mL. For the same substance, the “MIC against K. pneumonia” value in [10] (setting [31]) came to 25 µg/mL. Also, the “MIC against P. mirabilis” value in test [11] (setting [32]) is 25 µg/mL.
